Reference: article PMC4205289, “Triptolide inhibits human immunodeficiency virus type 1 replication by promoting proteasomal degradation of Tat protein” (Retrovirology, 2014)
Entries after “also recorded” stand apart in the source; their conditions may differ. Like-named read-outs stand apart in the source and are kept apart here.

Experiments:
HIV-1 NL4-3 = test: PBMC antiviral assay, p24 ELISA; type: cell-based; conditions: for EC50: Human immunodeficiency virus 1, NL43, PBMC, 144 h, p24, day 6 post-infection; for selectivity ratio at 6 days: human, read-out: SI (selective index, CC50/EC50)
Method: In the antiviral assay using PBMCs, determination of the anti-HIV-1 activity of a particular compound was based on the inhibition of HIV-1 capsid protein (p24) production. After isolation, PBMCs were stimulated with phytohemagglutinin (2 μg/ml, Sigma-Aldrich) and interleukin-2 (20 U/mL, Sigma-Aldrich) in RPMI 1640 complete medium for three days and were then maintained with interleukin-2 during viral infection. PBMCs were infected with HIV-1 NL4-3 (MOI = 0.01). After viral adsorption for 2 h, the cells were washed thoroughly with culture medium to remove unabsorbed viral particles. The infected cells (2 × 10^5 cells/well) were cultured in 96-well plates in the presence of or absence of the test compound. At two, four, six, and eight days post-infection, half of the culture supernatant was collected and replaced with fresh medium containing the test compounds. The level of viral replication was determined with an HIV-1 p24 antigen capture enzyme-linked immunosorbent assay (ELISA).

HIV-1 mRNA = test: Reverse-transcription PCR of viral mRNA (Gag region) in infected Jurkat cells; type: cell-based; conditions: HIV-1 NL4-3 MOI 0.5, 12 h post-infection, 118-D-24 50 μM, flavopiridol 20 nM, triptolide 5 nM
Method: The effects of the test compounds on HIV-1 proviral DNA and mRNA synthesis were analyzed by PCR. Jurkat cells were grown in 24-well plates and infected with the HIV-1 NL4-3 strain at an MOI of 0.5, and then test compounds were added at the desired concentrations. After incubation for 12 h, genomic DNA and mRNA from the infected cells were isolated using a Genomic DNA Mini Preparation Kit (Beyotime, China) and TRIzol reagent (Invitrogen Life Technologies), respectively. Nested PCR was used for the amplification of integrated proviral DNA, as previously described. To determine viral mRNA expression levels, 1 μg of RNA was treated with RQ1 RNase-Free DNase (Promega) and reverse transcribed using M-MLV Reverse Transcriptase (Promega) and random primers (Promega). An aliquot of cDNA was used as template for amplification of the HIV-1 Gag region as described elsewhere. […]
All of the PCR products were visualized on a UV transilluminator in 2% agarose gels stained with ethidium bromide. In preliminary experiments, the exponential range of the PCR amplification curve was determined for all of the PCR products by varying the amount of input DNA and the number of PCR cycles. Based on these experiments, appropriate conditions were chosen to perform semi-quantitative PCRs.

[1] = tested on: TNF-α-induced HIV-1 LTR activation; test: HIV-1 LTR-luciferase reporter assay, TNF-α-induced, Jurkat cells; type: cell-based; conditions: TNF-α 10 ng/mL, tested concentrations up to 5 nM
Method: Jurkat cells were seeded in 24-well plates at a density of 2 × 10^5 cells per well. For TNF-α induction, cells were co-transfected with pLTR-Luc and pRL-TK in the presence or absence of the test compounds. Then, the cells were treated with 10 ng/mL TNF-α 36 h post-transfection. After induction for an additional 12 h, luciferase activity was analyzed. For Tat-induced LTR activation, Jurkat cells were co-transfected with pLTR-Luc (or pLTR-Luc-ΔkB), pEF1-Tat and pRL-TK, and cultured in the presence of various concentrations of test compounds for an additional 48 h before the determination of luciferase activity. Luciferase levels were expressed relative to levels in cells without induction.

GFP = test: Western blot of GFP expressed from pEF1-GFP in HeLa cells; type: cell-based; conditions: 48 h
Method: Figure 5 Triptolide specifically reduces steady-state level of Tat protein. (A) HeLa cells were transfected with pEF1-FLAG-Tat in the presence of increasing concentrations of triptolide. Cells were harvested 48 h post-transfection, and protein expression levels were determined by Western blotting. (B) HeLa cells were transfected either with pEF1-GFP (left) or pEF1-Tat-GFP (right) in the presence of increasing concentrations of triptolide. Cells were harvested 48 h post-transfection, and protein expression levels were determined by Western blotting.
(§1) Cells were washed with phosphate buffered saline (PBS) and lysed with radio immunoprecipitation assay lysis buffer supplemented with complete mini protease inhibitor cocktail (Roche) at 4°C for 1 h. Proteins from cell lysates were separated by SDS-PAGE and transferred to polyvinylidene difluoride membranes. After overnight incubation with primary antibodies at 4°C, each blot was probed with horseradish peroxidase-conjugated secondary antibody. Immunoreactive signals were detected with an enhanced chemiluminescence substrate (Thermo Scientific) using an AlphaEaseH FC Imaging System (Alpha Innotech Corporation).

FLAG-Tat = tested on: T1, FLAG-Tat; test: Proteasome inhibition rescue of Tat expression, Western blot, HeLa cells; type: cell-based, HIV-1 NL4-3; conditions: 5 nM triptolide, without MG132
T1 construct: expressed in transfected cells; host or cells: HeLa
Method: Figure 6 Triptolide reduces Tat protein stability by enhancing proteasomal degradation of Tat. (A) The effect of triptolide on Tat mRNA levels. HeLa cells were transfected with pEF1-Tat in the presence of increasing concentrations of triptolide. Cells were harvested 48 h post-transfection. The steady-state mRNA levels of Tat and GAPDH were examined using semi-quantitative reverse transcription PCR analysis. RT, reverse transcriptase. (B) The effect of triptolide on Tat protein degradation. HeLa cells were transfected with pEF1-FLAG-Tat in the presence of 5 nM triptolide or vehicle (DMSO). At 28 h post-transfection, cells were treated with 20 μg/mL of CHX to arrest protein synthesis. At 0, 1, 2, 3 h post-treatment, cells were harvested to determine protein expression levels using Western blot analysis. (C) The band intensities of FLAG-Tat in panel B were measured, and their natural log values were plotted as a function of time. Results were presented as the mean plus the standard deviations (n = 3). (D) Proteasome inhibition restores Tat protein expression. HeLa cells were transfected with pEF1-FLAG-Tat in the presence or absence of 5 nM triptolide. At 48 h post-transfection, cells were treated with 20 μM of MG132, and cultured for an additional 3 h before harvest. Protein expression levels were determined by Western blot analysis. TEXT PRINTED IN THE PICTURE: (C) DMSO: Half-lives: 2.0 h | (C) Triptolide: Half-lives: 0.4 h
as §1

CC(C)[C@]12O[C@H]1[C@@H]1O[C@]13[C@]1(O[C@H]1C[C@H]1C4=C(CC[C@@]13C)C(=O)OC4)[C@@H]2O [triptolide]
EC50 (HIV-1 NL4-3; HIV-1 NL4-3, PBMC donor A): 1.1 nM | EC50 (HIV-1 NL4-3; HIV-1 NL4-3, PBMC donor B): 0.9 nM | EC50 (HIV-1 NL4-3; HIV-1 NL4-3, PBMC donor C): 1.3 nM | selectivity ratio at 6 days (HIV-1 NL4-3; HIV-1 NL4-3, PBMC donor A): 11.5 | selectivity ratio at 6 days (HIV-1 NL4-3; HIV-1 NL4-3, PBMC donor B): 17 | selectivity ratio at 6 days (HIV-1 NL4-3; HIV-1 NL4-3, PBMC donor C): 8.6 | effect on viral mRNA synthesis (HIV-1 mRNA): repress viral mRNA synthesis | effect on TNF-α induced gene expression [1]: no effect on TNF-α induced gene expression; also recorded: not active | expression level of GFP (GFP): not reduced | Tat protein expression (FLAG-Tat): reduced to undetectable level
